What was measured:
[1] = tested on: Rat Limb Bones (PTH induced bone resorption); assay: Bone Resorption Assay: 45Ca Release from Rat Limb Bones (PTH Induced); type: cell-based, rat (Sprague-Dawley CD)
Method: The purpose of this assay is to identify compounds that inhibit basal or stimulated bone resorption in culture.
The ability of 2-substituted-imidazo[4,5-c]pyridines to modify the process of bone resorption was evaluated essentially as described by L.G. Raisz, Bone resorption in tissue culture. Factors influencing the response to parathyroid hormone.
Timed pregnant Sprague-Dawley CD® rats (Charles River) are administered 100 μCi ^45 CaCl2 (NEN calcium -45 NEZ-013) in 100 μL of 0.9% saline, subcutaneously, on day 18 of gestation. The rats are sacrificed the following day by CO2 asphyxiation. The fetuses are removed and the right forelimbs excised and placed in a Petri dish containing ice cold explant medium consisting of modified BGJb -Fitton Jackson media (custom formulation, Gibco No. 78-0088) adjusted to pH 7.3 to which 10 mM TES is added. […] Under a dissecting microscope, the bones are gently cleaned of adherent tissue and the cartilaginous ends removed. Incubation and drug treatment. […] The preincubation medium is brought to 37° C. prior to transfer of bones. The preincubation medium consists of the modified BGJb medium (with salts and glucose as above), pH 7.3, containing 29 mM NaHCO3. […] For compounds that require nonaqueous solvents, dilutions are made from the appropriate stock solution with medium. In these instances, basal and bone resorption stimulated controls exposed to an equivalent concentration of the vehicle are included. […] The right ulna and radius from each fetus are used. Both bones are subjected to the same treatment and each treatment group consists of bones from 4 or more fetuses. Treatments are randomly assigned using a preclinical statistics program (PS-ALLOC). After a 48 hour incubation at 37° C. in 5% CO2, the bones are removed from the medium and extracted in 0.5 mL of 0.1N HCl for 1 or more days. Duplicate 150 μL aliquots of the incubation medium and the bone extract are analyzed for ^45 Ca radioactivity in 5 mL of liquid scintillation cocktail.
The percentage of bone ^45 Ca released into the medium is determined as follows: [formula] […]

[2] = tested on: osteopenia induced by denervation of the sciatic nerve in rats; assay: Denervation Induced Osteopenia in Rats; type: in vivo, rat (female Sprague Dawley CD)
From the text: The purpose of this assay is to evaluate the effect, in rats, of agents on the reduction in bone mass (osteopenia) induced by immobilization resulting from surgical severance (denervation) of the sciatic nerve.
The animals are housed in plastic cages (4 or 5 rats/cage) with food (rat purina 500 chow) and water ad libitum; 14/10 day/night cycle.
After one week of in-house acclimatization, the animals are randomly divided into groups of 6 to 10 rats/group. Each rat is weighed, anesthetized with an intraperitoneal administration of 100 mg/kg ketamine (Bristol Laboratories, Syracuse, N.Y.) and 0.75 mg/kg Acepromazine (Aveco, Ft. Dodge, Iowa). The left hind limb is shaved and denervated by making a lateral incision parallel to the femur and by surgically removing half of a centimeter of the sciatic nerve adjacent to caudofemoralis and adductor brevis muscles. The incision is closed with wound clips. After surgery, the rats are housed in cages with absorbent bedding to minimize additional trauma to the immobilized limb. A 24 hour post-surgery recovery period is allowed before the initiation of the drug treatment.
The concentration of the drug stock is calculated to be delivered in a volume of 0.1 mL/100 gram body weight. The drug solution or a uniform suspension is prepared in 1% Tween 80 in normal saline. The drugs are administered via oral or parenteral routes daily (five times a week) for four weeks.
A sequential triple labeling of mineralized tissue is employed to determine the osseous changes (especially the bone formation) and the mineralization rates. Each animal is administered 90 mg/kg Xylenol orange (Fisher Scientific Company), S.C., 15 mg/kg Calcein (Sigma Chemical Company), S.C. and 15 mg/kg Demeclocycline (Sigma Chemical Company), i.p., approximately 21 days, 10 days and 2 days prior to the termination of the study, respectively.
At the end of the fourth week, each rat is weighed, anesthetized with an intraperitoneal administration of 100 mg/kg ketamine with 0.75 mg/kg Acepromazine and approximately 4 mL of blood collected via cardiac puncture. The anesthetized rats are euthanized by exposure to carbon dioxide. The femora and tibiae from both limbs are dissected free of soft tissue. (i) Femora are ashed at ~1100° C. for 16 hours using a muffle furnace. --(ii) Proximal tibia are fixed, dehydrated and embedded undecalcified in a methyl methacrylate-glycol methacrylate mixture. Longitudinal tissue sections (10 microns) are prepared on a Polycut S microtome (Reichert). Staining is performed on free-floating sections using a modified Goldner's stain, which are then mounted and coverslipped.
Cancellous bone content in the proximal tibia is quantified (as two dimensional bone mineral area [B.Ar]) with an image analysis processing device (software developed by Drexel University).
The areas of the tibia selected for cancellous bone content evaluation are the primary and secondary spongiosa. To select and standardize this area for evaluation, the epiphyseal growth plate-metaphyseal junction is oriented parallel to the abscissa of the digitizing screen. Bone elements 1.7 mm (secondary spongiosa) and 0.2 mm (primary spongiosa) from the growth plate and equidistant from the flanking cortical elements are then quantified as described above. The total area evaluated is 2.30 mm wide and 1.45 mm deep, constituting a 3.34 mm^2 area.
Body weight, femur mass (dried or ashed) and trabecular (cancellous) bone mineral area (B.Ar) are determined.
The difference (both absolute and percent change) in femur mass and bone mineral area between intact (control) and denervated limbs of a treatment group are compared with that for the vehicle group using a one-way analysis of variance with Dunnett's test, or other multiple comparison methods.
The results are reported in Table I and II under the heading In Vivo.

[3] = Table II, 25 mg/kg, route not given
[4] = Table I, concentration not given

Compound	Inhibition of Bone Resorption, PTH Induced ([1]; Table II, 10 μg/mL)	Inhibition of Bone Resorption, In Vivo [2, 3]	Inhibition of Bone Resorption, PTH Induced ([1]; Table I, 10 μg/mL)	Inhibition of Bone Resorption, In Vivo ([2]; po, 672 h)	other results
CCOc1cccc(CSc2nc3cnccc3[nH]2)c1 [Example 52, 2-[[(3-Ethoxyphenyl)methyl]thio]-1H-imidazo[4,5-c]pyridine]	Inactive	Inactive			
Fc1ccccc1CSc1nc2cnccc2[nH]1 [Example 40, 2-[[(2-Fluorophenyl)methyl]thio]-1H-imidazo[4,5-c]pyridine]	Active	Inactive			
CCOc1cccc(C[S+]([O-])c2nc3cnccc3[nH]2)c1 (stereo not drawn) [Example 53, 2-[[(3-Ethoxyphenyl)methyl]sulfinyl]-1H-imidazo[4,5-c]pyridine One Third Hydrate]			Active		
Br.Br.Oc1cccc(CSc2nc3cnccc3[nH]2)c1 [Example 54, 3-[[(1H-Imidazo[4,5-c]pyridin-2-yl)thio]methyl]phenol Dihydrobromide]	Inactive	Inactive			
COc1ccc(C[S+]([O-])c2nc3cnccc3[nH]2)cc1C (stereo not drawn) [Example 51, 2-[[(4-Methoxy-3-methylphenyl)methyl]sulfinyl]-1H-imidazo[4,5-c]pyridine]				Inactive	
[O-][S+](Cc1ccccc1F)c1nc2cnccc2[nH]1 (stereo not drawn) [Example 41, 2-[[(2-Fluorophenyl)methyl]sulfinyl]-1H-imidazo[4,5-c]pyridine Quarter Hydrate]			Active	Inactive	
2-[[(3,5-Dimethoxyphenyl)methyl]thio]-1H-imidazo[4,5-c]pyridine [Example 44]	Active	Inactive			
c1ccc(Oc2cccc(CSc3nc4cnccc4[nH]3)c2)cc1 [Example 46, 2-[[(3-Phenoxyphenyl)methyl]thio]-1H-imidazo[4,5-c]pyridine]	Inactive	Inactive			
O=[N+]([O-])c1cccc(CSc2nc3cnccc3[nH]2)c1 [Example 48, 2-[[(3-Nitrophenyl)methyl]thio]-1H-imidazo[4,5-c]pyridine]		Inactive			
COc1ccccc1C[S+]([O-])c1nc2cnccc2[nH]1 (stereo not drawn) [Example 43, 2-[[(2-Methoxyphenyl)methyl]sulfinyl]-1H-imidazo[4,5-c]pyridine]			Active		
Clc1cc2c(cc1CSc1nc3cnccc3[nH]1)OCO2 [Example 24, 2-[[(6-Chloro-1,3-benzodioxol-5-yl)methyl]thio]-1H-imidazo[4,5-c]pyridine]	Active				
COc1ccccc1CSc1nc2cnccc2[nH]1 [Example 42, 2-[[(2-Methoxyphenyl)methyl]thio]-1H-imidazo[4,5-c]pyridine]	Active				
N#Cc1ccccc1CSc1nc2cnccc2[nH]1 [Example 38, 2-[(1H-Imidazo[4,5-c]pyridin-2-ylthio)methyl]benzonitrile]	Inactive	Inactive			
COc1ccc(CSc2nc3cnccc3[nH]2)cc1C [Example 50, 2-[[(4-Methoxy-3-methylphenyl)methyl]thio]-1H-imidazo[4,5-c]pyridine]		Inactive			
COc1cccc(C[S+]([O-])c2nc3cnccc3[nH]2)c1 (single isomer, unassigned) [Example 57]					Inhibition of Bone Resorption, PTH Induced [1, 4]: Active
COc1cccc(CCSc2nc3cnccc3[nH]2)c1 [Example 16, 2-[[(3-Methoxyphenyl)ethyl]thio]-1H-imidazo[4,5-c]pyridine]	Inactive				Inhibition of Bone Resorption, In Vivo ([2]; Table II, 25 mg/kg, p.o.): Inactive
[O-][S+](Cc1cccc(Oc2ccccc2)c1)c1nc2cnccc2[nH]1 (stereo not drawn) [Example 47, 2-[[(3-Phenoxyphenyl)methyl]sulfinyl]-1H-imidazo[4,5-c]pyridine]			Active	Inactive	
COc1cccc(C[S+]([O-])c2nc3cnccc3[nH]2)c1 (single isomer, unassigned) [Example 58, [R-(-)]-2-[[(3-Methoxyphenyl)methyl]sulfinyl]-1H-imidazo[4,5-c]pyridine One Quarter Hydrate]					Inhibition of Bone Resorption, PTH Induced [1, 4]: Active
COc1cc(C[S+]([O-])c2nc3cnccc3[nH]2)cc(OC)c1 (stereo not drawn) [Example 45, 2-[[(3,5-Dimethoxyphenyl)methyl]sulfinyl]-1H-imidazo[4,5-c]pyridine]			Active	Inactive	
N#Cc1ccccc1C[S+]([O-])c1nc2cnccc2[nH]1 (stereo not drawn) [Example 39, 2-[[(1H-Imidazo[4,5-c]pyridin-2-yl)sulfinyl]methyl]benzonitrile]			Active	Inactive	
O=[N+]([O-])c1cccc(C[S+]([O-])c2nc3cnccc3[nH]2)c1 (stereo not drawn) [Example 49, 2-[[(3-Nitrophenyl)methyl]sulfinyl]-1H-imidazo[4,5-c]pyridine 0.15 Dimethylformamide]				Inactive	
COc1cc(C[S+]([O-])c2nc3cnccc3[nH]2)cc(OC)c1OC (stereo not drawn) [Example 29, 2-[[(3,4,5-Trimethoxyphenyl)methyl]sulfinyl]-1H-imidazo[4,5-c]pyridine-One Third Hydrate]				Inactive	Inhibition of Bone Resorption, PTH Induced [1, 4]: Inactive
COc1ccc(C[S+]([O-])c2nc3cnccc3[nH]2)cc1 (stereo not drawn) [Example 27, 2-[[(4-Methoxyphenyl)methyl]sulfinyl]-1H-imidazo[4,5-c]-pyridine-One Third Hydrate]			Active	Inactive	

From US5081253A, “Imidazo(4,5-C)pyridines as antiosteoporotic agents” (American Home Products Corporation, priority 1990, dated 1992)
